Reference: patent publication US20120208809A1, “9H-PYRROLO[2,3-B: 5,4-C'] DIPYRIDINE AZACARBOLINE DERIVATIVES, PREPARATION THEREOF, AND THERAPEUTIC USE THEREOF” (SANOFI, priority 2009, published 2012)

How the values were obtained:
Pim-2 = target: T1, Pim-2 (Homo sapiens, UniProt Q9P1W9); experiment: TR-FRET assay of Pim kinase activity (phosphorylation of Bad Ser112), Pim-2; type: biochemical; settings: ATP 40 μM, read-out: IC50 Pim2
T1 construct: full-length human recombinant His6-labelled Pim-1, Pim-2 or Pim-3 protein; His6; made in house
Procedure: (§1) In order to determine the inhibition of Pim kinase activity, the compounds of the invention are tested in accordance with a routinely-used in-vitro TR-FRET assay (“Time Resolved-Fluorescence Resonance Energy Transfer”). […] For the assay, the following reagents are used:
(§2) Pim kinase—full-length human recombinant His6-labelled Pim-1, Pim-2 or Pim-3 protein (prepared according to J. Mol. Biol. (2005) 348, 183-193); Bad—full-length human recombinant His6-labelled Bad protein (prepared according to J. Mol. Biol. (2005) 348, 183-193); α-His6-APC—mouse monoclonal antibody conjugated to allophycocyanine SureLight™ directed against the His6 label (Perkin-Elmer, No. AD0059H, Waltham, Mass., United States); α-P˜Bad-Eu—mouse monoclonal antibody (Cell Signaling Technology #9296B, Danvers, Mass., United States) directed against phosphoBad (Ser112) (7E11) labelled on request by Perkin-Elmer with the reagent LANCE™ Eu-W1024.
(§3) The assay is based on the LANCE™ technology from Perkin-Elmer: the Eu-labelled antibody binds to phospho-Ser112 and generates a TR-FRET signal by interaction with the […] antibody directed against His6, bound to the His6 label of Bad. The TR-FRET signal is detected using a SpectraMax M5 plate reader (Molecular Devices) with the following settings: λex=340 nm, λem1=615 nm, λem2=665 nm. The ratio of the fluorescence signal at 665 nm to the fluorescence signal at 615 nm is used as the signal reading for the IC50 (calculations based on the 4-parameter logistic model). The assay is performed in 384-well format; the liquid manipulations are performed using a Beckmann 3000 liquid manipulation station. The test compounds are tested at 10 concentration points in duplicate; the highest concentration of compound is typically equal to 30 μM. The ATP concentration is equal to 40 μM.

Pim-3 = target: T2, Pim-3 (Homo sapiens, UniProt Q86V86); experiment: TR-FRET assay of Pim kinase activity (phosphorylation of Bad Ser112), Pim-3; type: biochemical; settings: ATP 40 μM, read-out: IC50 Pim3
T2 construct: full-length human recombinant His6-labelled Pim-1, Pim-2 or Pim-3 protein; His6; made in house
Procedure: as §1, §2, §3

EOL-1 = experiment: Cell viability assay (CellTiter-Blue), EOL-1; type: cell-based; settings: Homo sapiens, EOL1, read-out: EC50 EOL-1 μM (eosinophilic leukaemia), EOL-1 cells, read-out: EC50 EOL-1 μM (lymphoma);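 also: EOL-1 is an acute myeloid eosinophilic leukaemia line not a lymphoma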
Source text: (§4) The representative compounds of the invention are also screened as regards their effects on cell proliferation and viability, using a variety of tumoral cell lines of human source, representative of different pathological indications. These cell lines include:
Models of Haematological Cancers: • TF-1 (acute myelogenic leukaemia; AML M6 at the time of diagnosis); • K G-1 (AML; erythroleukaemia evolving into AML); • KG-1a (AML; subclone derived from immature KG-1); • EOL-1 (AML: eosinophilic leukaemia); • PL-21 (AML; M3); • ML-2 (AML; T-NHL evolving into T-ALL evolving into AML M4); • HL-60 (AML, M3); • Kasumi-1 (AML); • GDM-1 (AML); • K-562 (CML—chronic myelogenic leukaemia; blastic crisis); • JURL-MK1 (CML; blastic crisis); • DND-41 (T-ALL—T-cell acute lymphoblastic leukaemia); • Jurkat (T-ALL); NALM-6 (B-ALL B-cell ALL); • CEM (ALL; lymphosarcoma evolving into ALL); • Jeko-1 (B-NHL—B-cell non-Hodgkin lymphoma; lymphoma with coat cells derived from a large-cell variant in leukaemic transformation); • WSU-DLCL2 (B-NHL; diffuse lymphoma with large B cells); • RL (B-NHL; undifferentiated diffuse); • OCl-Ly10 (B-NHL); • DoHH-2 (B-NHL); • RPMI-8226 (MM—multiple myelomas); • JVM-2 (B-CLL—B-cell chronic lymphocytic leukaemia); and • JVM-3 (B-CLL).
(§5) In order to measure the viability, the tumour cells are incubated in 96-well or 384-well format for 48, 72 or 96 hours, preferably 72 hours, with a compound of the invention at dilutions of a factor 3, with, in general, nine doses in total, the highest dose being equal to 10 μM or 30 μM. The cell viability is evaluated by adding CellTiter-Blue® (Promega, Madison, Wis., United States) for 4 hours and endpoint readings are taken using a SpectraMax Genmini EM plate reader (Molecular Devices, Sunnyvale, Calif., United States). The CellTiter-Blue® cell viability assay measures the ability of the cells in culture to reduce resazurin to resorufin, the intensity of the fluorescence signal being directly proportional to the number of live cells. The EC50 represents the concentration of compound that leads to a 50% reduction of the viability/proliferative expansion of the cells.

PLK1 = PLK1 (Homo sapiens, UniProt P53350); experiment: Biochemical results, IC50 PLK1
MV4-11 = experiment: Cell viability assay (CellTiter-Blue), MV4-11; type: cell-based; settings: Homo sapiens, read-out: EC50 MV4-11 μM (acute myeloid leukemia), MV4-11 cells, read-out: EC50 MV4-11 μM (myeloma)
Procedure: as §4, §5

CDK1 = CDK1 (Homo sapiens, UniProt P06493); experiment: Biochemical results, IC50 CDK1
Pim-1 = target: T3, Pim-1 (Homo sapiens, UniProt P11309); experiment: TR-FRET assay of Pim kinase activity (phosphorylation of Bad Ser112), Pim-1; type: biochemical; settings: ATP 40 μM, read-out: IC50 Pim1
T3 construct: full-length human recombinant His6-labelled Pim-1, Pim-2 or Pim-3 protein; His6; made in house
Procedure: as §1, §2, §3

PLK1, sequence (P53350 whole entry, species assumed): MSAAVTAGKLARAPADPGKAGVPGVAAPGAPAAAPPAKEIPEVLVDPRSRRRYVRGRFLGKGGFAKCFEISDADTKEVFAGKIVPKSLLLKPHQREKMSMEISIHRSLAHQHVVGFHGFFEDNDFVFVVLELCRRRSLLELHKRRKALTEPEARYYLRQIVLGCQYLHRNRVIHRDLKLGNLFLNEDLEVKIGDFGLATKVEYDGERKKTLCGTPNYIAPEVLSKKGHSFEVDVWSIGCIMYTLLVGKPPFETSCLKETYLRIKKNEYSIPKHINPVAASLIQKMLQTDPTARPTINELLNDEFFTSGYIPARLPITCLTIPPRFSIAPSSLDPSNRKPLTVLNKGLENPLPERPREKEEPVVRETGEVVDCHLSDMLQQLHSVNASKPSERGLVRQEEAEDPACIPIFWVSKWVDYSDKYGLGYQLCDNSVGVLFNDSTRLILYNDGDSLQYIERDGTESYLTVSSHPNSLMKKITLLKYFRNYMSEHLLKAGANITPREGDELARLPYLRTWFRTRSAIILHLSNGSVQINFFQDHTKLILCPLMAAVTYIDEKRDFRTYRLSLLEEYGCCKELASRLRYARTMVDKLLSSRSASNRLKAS
T1 sequence (Q9P1W9 whole entry): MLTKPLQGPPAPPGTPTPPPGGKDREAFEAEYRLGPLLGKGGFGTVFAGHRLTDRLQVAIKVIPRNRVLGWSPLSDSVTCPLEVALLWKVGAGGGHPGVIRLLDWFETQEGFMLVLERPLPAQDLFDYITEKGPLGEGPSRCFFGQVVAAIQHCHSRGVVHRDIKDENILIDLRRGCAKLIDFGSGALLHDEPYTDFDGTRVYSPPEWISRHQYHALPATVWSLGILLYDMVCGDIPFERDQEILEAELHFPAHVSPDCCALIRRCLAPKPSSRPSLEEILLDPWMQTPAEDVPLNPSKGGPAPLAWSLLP
CDK1, sequence (P06493 whole entry, species assumed): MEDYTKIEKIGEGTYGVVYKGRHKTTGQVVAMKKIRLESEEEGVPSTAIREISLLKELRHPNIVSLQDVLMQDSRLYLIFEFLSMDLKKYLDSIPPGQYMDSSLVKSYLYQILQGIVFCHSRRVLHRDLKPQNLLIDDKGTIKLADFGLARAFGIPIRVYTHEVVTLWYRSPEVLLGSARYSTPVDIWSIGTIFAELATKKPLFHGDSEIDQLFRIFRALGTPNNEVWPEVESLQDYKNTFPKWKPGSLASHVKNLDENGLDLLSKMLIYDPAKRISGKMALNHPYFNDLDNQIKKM
CDK1, sequence (P14635 whole entry partner, species assumed): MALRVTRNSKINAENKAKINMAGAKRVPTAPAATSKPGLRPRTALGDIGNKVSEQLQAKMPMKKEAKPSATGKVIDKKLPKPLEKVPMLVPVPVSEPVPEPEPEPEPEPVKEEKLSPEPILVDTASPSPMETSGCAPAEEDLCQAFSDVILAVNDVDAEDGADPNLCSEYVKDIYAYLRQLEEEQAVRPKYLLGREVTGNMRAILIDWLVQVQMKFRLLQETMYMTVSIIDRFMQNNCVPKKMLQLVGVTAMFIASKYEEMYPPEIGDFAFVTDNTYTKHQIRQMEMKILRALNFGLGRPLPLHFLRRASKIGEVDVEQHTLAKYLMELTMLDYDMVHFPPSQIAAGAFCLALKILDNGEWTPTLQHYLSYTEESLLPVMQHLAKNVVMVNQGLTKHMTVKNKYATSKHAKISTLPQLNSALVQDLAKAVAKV
T3 sequence (P11309 whole entry): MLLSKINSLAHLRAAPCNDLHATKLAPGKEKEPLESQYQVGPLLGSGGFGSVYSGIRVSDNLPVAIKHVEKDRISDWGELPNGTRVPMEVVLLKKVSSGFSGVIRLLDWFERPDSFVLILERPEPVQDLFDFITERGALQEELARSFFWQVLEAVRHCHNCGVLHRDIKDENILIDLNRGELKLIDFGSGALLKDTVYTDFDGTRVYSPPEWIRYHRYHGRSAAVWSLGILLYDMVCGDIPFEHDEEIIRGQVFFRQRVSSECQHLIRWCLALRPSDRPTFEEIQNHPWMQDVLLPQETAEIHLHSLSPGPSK

Row | IC50 (Pim-2) | IC50 (Pim-3) | IC50 (PLK1) | EC50 (MV4-11) | IC50 (CDK1) | IC50 (Pim-1) | SMILES | EC50 (EOL-1)
1 | 100 to 1000 nM | < 100 nM | 100 to 1000 nM | 100 to 1000 nM | 100 to 1000 nM | < 100 nM | NCC(F)(F)CNC(=O)c1ccc(-c2c(F)cnc3[nH]c4cnc(-c5cccnc5)cc4c23)cc1 [Example 90, N-(3-amino-2,2-difluoropropyl)-4-[3-fluoro-6-(pyridin-3-yl)-9H-pyrrolo[2,3-b:5,4-c′]dipyridin-4-yl]benzamide] | 100 to 1000 nM
2 | < 100 nM | < 100 nM | 100 to 1000 nM | < 100 nM | 100 to 1000 nM | < 100 nM | CN1CC(NC(=O)c2ccc(-c3c(F)cnc4[nH]c5cnc(-c6cccnc6)cc5c34)cc2)C1 [Example 56, 4-[3-fluoro-6-(pyridin-3-yl)-9H-pyrrolo[2,3-b:5,4-c′]dipyridin-4-yl]-N-(1-methylazetidin-3-yl)benzamide] | < 100 nM
3 | < 100 nM | < 100 nM | > 5000 nM | 100 to 1000 nM | 1000 to 5000 nM | < 100 nM | CN1CCC(NC(=O)c2ccc(-c3c(F)cnc4[nH]c5cnc(-c6cnn(C)c6Cl)cc5c34)cc2)CC1 [Example 107, 4-[6-(5-chloro-1-methyl-1H-pyrazol-4-yl)-3-fluoro-9H-pyrrolo[2,3-b:5,4-c′]dipyridin-4-yl]-N-(1-methylpiperidin-4-yl)benzamide] | 100 to 1000 nM
4 | < 100 nM | < 100 nM | 1000 to 5000 nM | 100 to 1000 nM | 100 to 1000 nM | < 100 nM | CN1CCN(NC(=O)c2ccc(-c3c(F)cnc4[nH]c5cnc(-c6cnn(C)c6Cl)cc5c34)cc2)CC1 [Example 106, 4-[6-(5-chloro-1-methyl-1H-pyrazol-4-yl)-3-fluoro-9H-pyrrolo[2,3-b:5,4-c′]dipyridin-4-yl]-N-(4-methylpiperazin-1-yl)benzamide] | < 100 nM
5 | 100 to 1000 nM | < 100 nM | 100 to 1000 nM | – | 1000 to 5000 nM | < 100 nM | CCN1CCCC1CNC(=O)c1ccc(-c2c(F)cnc3[nH]c4cnc(-c5cccnc5)cc4c23)cc1 (stereo not drawn) [Example 51, N-[(1-ethylpyrrolidin-2-yl)methyl]-4-[3-fluoro-6-(pyridin-3-yl)-9H-pyrrolo[2,3-b:5,4-c′]dipyridin-4-yl]benzamide] | –
6 | 100 to 1000 nM | < 100 nM | 100 to 1000 nM | – | 100 to 1000 nM | < 100 nM | CN(C)[C@H]1CCN(C(=O)c2ccc(-c3c(F)cnc4[nH]c5cnc(-c6cccnc6)cc5c34)cc2)C1 [Example 69, [(3S)-3-(dimethylamino)pyrrolidin-1-yl]{4-[3-fluoro-6-(pyridin-3-yl)-9H-pyrrolo[2,3-b:5,4-c′]dipyridin-4-yl]phenyl}methanone] | –
7 | 1000 to 5000 nM | < 100 nM | 1000 to 5000 nM | – | 1000 to 5000 nM | < 100 nM | CN1CCC2(CCN(C(=O)c3ccc(-c4c(F)cnc5[nH]c6cnc(-c7cccnc7)cc6c45)cc3)C2)C1 (stereo not drawn) [Example 77, {4-[3-fluoro-6-(pyridin-3-yl)-9H-pyrrolo[2,3-b:5,4-c′]dipyridin-4-yl]phenyl}(7-methyl-2,7-diazaspiro[4.4]non-2-yl)methanone] | –
8 | < 100 nM | < 100 nM | 100 to 1000 nM | 100 to 1000 nM | 100 to 1000 nM | < 100 nM | NC1(CNC(=O)c2ccc(-c3c(F)cnc4[nH]c5cnc(-c6cccnc6)cc5c34)cc2)CC1 [Example 89, N-[(1-aminocyclopropyl)methyl]-4-[3-fluoro-6-(pyridin-3-yl)-9H-pyrrolo[2,3-b:5,4-c′]dipyridin-4-yl]benzamide] | 100 to 1000 nM
9 | 100 to 1000 nM | < 100 nM | > 5000 nM | – | 1000 to 5000 nM | < 100 nM | CN1CCN(NC(=O)c2ccc(-c3c(F)cnc4[nH]c5cnc(-c6cnn(C)c6)cc5c34)cc2)CC1 [Example 99, 4-[3-fluoro-6-(1-methyl-1H-pyrazol-4-yl)-9H-pyrrolo[2,3-b:5,4-c′]dipyridin-4-yl]-N-(4-methylpiperazin-1-yl)benzamide] | –
10 | 1000 to 5000 nM | < 100 nM | 100 to 1000 nM | – | 1000 to 5000 nM | < 100 nM | CN1CCC(N(C)C(=O)c2ccc(-c3c(F)cnc4[nH]c5cnc(-c6cccnc6)cc5c34)cc2)CC1 [Example 81, 4-[3-fluoro-6-(pyridin-3-yl)-9H-pyrrolo[2,3-b:5,4-c′]dipyridin-4-yl]-N-methyl-N-(1-methylpiperidin-4-yl)benzamide] | –
11 | < 100 nM | < 100 nM | 100 to 1000 nM | 100 to 1000 nM | 100 to 1000 nM | < 100 nM | CCNCCNC(=O)c1ccc(-c2c(F)cnc3[nH]c4cnc(-c5cccnc5)cc4c23)cc1 [Example 87, N-[2-(ethylamino)ethyl]-4-[3-fluoro-6-(pyridin-3-yl)-9H-pyrrolo[2,3-b:5,4-c′]dipyridin-4-yl]benzamide] | 100 to 1000 nM
12 | 1000 to 5000 nM | 100 to 1000 nM | 1000 to 5000 nM | – | 1000 to 5000 nM | < 100 nM | CN1CCC(N(C)C(=O)c2ccc(-c3c(F)cnc4[nH]c5cnc(-c6cccnc6)cc5c34)cc2)C1 (stereo not drawn) [Example 70, 4-[3-fluoro-6-(pyridin-3-yl)-9H-pyrrolo[2,3-b:5,4-c′]dipyridin-4-yl]-N-methyl-N-(1-methylpyrrolidin-3-yl)benzamide] | –
